Reference: ChEMBL document CHEMBL1145352, “Synthesis and cytotoxic activity of trisubstituted-1,3,5-triazines” (Bioorg Med Chem Lett, 2007)
≈ marks a conversion by molar mass, not a printed value.

What was measured:
HL-60 [1] = experiment: Photocytotoxicity against human HL60 cells irradiated with 1.25 J cm^-2 UVA dose after 72 hrs by MTT assay; type: functional; settings: HL-60, light or radiation study
[2] = tested on: Mycobacterium tuberculosis; experiment: Antimycobacterial activity against Mycobacterium tuberculosis H37Rv; type: functional
[3] = Inhibition of oxygen evolution rate in spinach chloroplasts; type: functional, Spinacia oleracea
Chlorella vulgaris = experiment: Antialgal activity against Chlorella vulgaris assessed as inhibition of chlorophyll production; type: functional, organism-based
[4] = tested on: Mycobacterium tuberculosis; experiment: Antimycobacterial activity against Mycobacterium tuberculosis H37Rv relative to control; type: functional; parameters: concentration or dose not given beside the values
LoVo [5] = experiment: Photocytotoxicity against human LoVo cells irradiated with 1.25 J cm^-2 UVA dose after 72 hrs by MTT assay; type: functional; settings: light or radiation study
LoVo [6] = experiment: Photocytotoxicity against human LoVo cells irradiated with 2.5 J cm^-2 UVA dose after 72 hrs by MTT assay; type: functional; settings: light or radiation study
HL-60 [7] = experiment: Cell cycle arrest in human HL60 cells irradiated with 2.5 J cm^-2 CUVA assessed as accumulation at G2 phase at 2.5 mM after 48 hrs; type: functional
HL-60 [8] = experiment: Cell cycle arrest in human HL60 cells irradiated with 2.5 J cm^-2 CUVA assessed as accumulation at G2 phase at 2.5 mM after 72 hrs; type: functional
HL-60 [9] = experiment: Cell cycle arrest in human HL60 cells irradiated with 2.5 J cm^-2 CUVA assessed as accumulation at G1 phase at 5 mM after 48 hrs; type: functional
HL-60 [10] = experiment: Cell cycle arrest in human HL60 cells irradiated with 2.5 J cm^-2 CUVA assessed as accumulation at S phase at 2.5 mM after 48 hrs; type: functional
HL-60 [11] = experiment: Induction of apoptosis in human HL60 cells irradiated with 2.5 J cm^-2 CUVA assessed as appearance of sub G1 peak at 5 mM after 24 hrs; type: functional
HL-60 [12] = experiment: Cell cycle arrest in human HL60 cells irradiated with 2.5 J cm^-2 CUVA assessed as accumulation at G2 phase at 5 mM after 24 hrs; type: functional
HL-60 [13] = experiment: Cell cycle arrest in human HL60 cells irradiated with 2.5 J cm^-2 CUVA assessed as accumulation at S phase at 2.5 mM after 72 hrs; type: functional
HL-60 [14] = experiment: Induction of apoptosis in human HL60 cells irradiated with 2.5 J cm^-2 CUVA assessed as appearance of sub G1 peak at 2.5 mM after 48 hrs; type: functional
HL-60 [15] = experiment: Cell cycle arrest in human HL60 cells irradiated with 2.5 J cm^-2 CUVA assessed as accumulation at G1 phase at 2.5 mM after 72 hrs; type: functional
HL-60 [16] = experiment: Induction of apoptosis in human HL60 cells irradiated with 2.5 J cm^-2 CUVA assessed as appearance of sub G1 peak at 5 mM after 48 hrs; type: functional
HL-60 [17] = experiment: Cell cycle arrest in human HL60 cells irradiated with 2.5 J cm^-2 CUVA assessed as accumulation at G2 phase at 5 mM after 48 hrs; type: functional
HL-60 [18] = experiment: Induction of apoptosis in human HL60 cells irradiated with 2.5 J cm^-2 CUVA assessed as appearance of sub G1 peak at 5 mM after 72 hrs; type: functional
HL-60 [19] = experiment: Cell cycle arrest in human HL60 cells irradiated with 2.5 J cm^-2 CUVA assessed as accumulation at S phase at 2.5 mM after 24 hrs; type: functional
HL-60 [20] = experiment: Cell cycle arrest in human HL60 cells irradiated with 2.5 J cm^-2 CUVA assessed as accumulation at S phase at 5 mM after 72 hrs; type: functional
HL-60 [21] = experiment: Cell cycle arrest in human HL60 cells irradiated with 2.5 J cm^-2 CUVA assessed as accumulation at G2 phase at 2.5 mM after 24 hrs; type: functional
HL-60 [22] = experiment: Cell cycle arrest in human HL60 cells irradiated with 2.5 J cm^-2 CUVA assessed as accumulation at S phase at 5 mM after 24 hrs; type: functional
HL-60 [23] = experiment: Cell cycle arrest in human HL60 cells irradiated with 2.5 J cm^-2 CUVA assessed as accumulation at G1 phase at 5 mM after 72 hrs; type: functional
HL-60 [24] = experiment: Cell cycle arrest in human HL60 cells irradiated with 2.5 J cm^-2 CUVA assessed as accumulation at G1 phase at 2.5 mM after 24 hrs; type: functional
HL-60 [25] = experiment: Cell cycle arrest in human HL60 cells irradiated with 2.5 J cm^-2 CUVA assessed as accumulation at G1 phase at 5 mM after 24 hrs; type: functional
HL-60 [26] = experiment: Cell cycle arrest in human HL60 cells irradiated with 2.5 J cm^-2 CUVA assessed as accumulation at S phase at 5 mM after 48 hrs; type: functional
HL-60 [27] = experiment: Cell cycle arrest in human HL60 cells irradiated with 2.5 J cm^-2 CUVA assessed as accumulation at G1 phase at 2.5 mM after 48 hrs; type: functional
HL-60 [28] = experiment: Induction of apoptosis in human HL60 cells irradiated with 2.5 J cm^-2 CUVA assessed as appearance of sub G1 peak at 2.5 mM after 72 hrs; type: functional
HL-60 [29] = experiment: Induction of apoptosis in human HL60 cells irradiated with 2.5 J cm^-2 CUVA assessed as appearance of sub G1 peak at 2.5 mM after 24 hrs; type: functional
HL-60 [30] = experiment: Cell cycle arrest in human HL60 cells irradiated with 2.5 J cm^-2 CUVA assessed as accumulation at G2 phase at 5 mM after 72 hrs; type: functional

COc1ccc(Nc2nc(Nc3ccc(OC)cc3)nc(Nc3ccc(OC)cc3)n2)cc1
GI50 (HL-60 [1]): 3.4 mM | MIC [2]: > 6.25 µg/mL | IC50 [3]: 0.241 mmol/dm3 | IC50 (Chlorella vulgaris): 0.079 mmol/dm3 | Inhibition [4]: 72%

c1ccc(Nc2nc(Nc3ccccc3)nc(Nc3ccccc3)n2)cc1
GI50 (HL-60 [1]): > 10 mM | MIC [2]: > 6.25 µg/mL | IC50 [3]: 1.072 mmol/dm3 | Inhibition [4]: 0%

CNc1nc(NC)nc(NC)n1
GI50 (HL-60 [1]): > 10 mM | MIC [2]: > 6.25 µg/mL | IC50 [3]: 0.118 mmol/dm3 | IC50 (Chlorella vulgaris): 0.356 mmol/dm3 | Inhibition [4]: 24%

CN(C)c1nc(N(C)C)nc(N(C)C)n1 [ALTRETAMINE]
GI50 (LoVo [5]): 17.2 mM | GI50 (HL-60 [1]): > 10 mM | MIC [2]: > 6.25 µg/mL | IC50 [3]: 0.486 mmol/dm3 | GI50 (LoVo [6]): 10.3 mM | IC50 (Chlorella vulgaris): 0.125 mmol/dm3 | Inhibition [4]: 28%

CO[C@H]1/C=C/O[C@@]2(C)Oc3c(C)c(O)c4c(O)c(c(/C=N/N5CCN(C)CC5)c(O)c4c3C2=O)NC(=O)/C(C)=C\C=C\[C@H](C)[C@H](O)[C@@H](C)[C@@H](O)[C@@H](C)[C@H](OC(C)=O)[C@@H]1C [RIFAMPIN]
MIC [2]: 0.125 µg/mL (≈ 0.152 µM) | Inhibition [4]: 100%

Oc1nc(O)nc(O)n1
GI50 (HL-60 [1]): 4.3 mM | MIC [2]: > 6.25 µg/mL | IC50 [3]: 0.081 mmol/dm3 | Inhibition [4]: 39%

CN(C)C(=O)Nc1ccc(Cl)c(Cl)c1 [DCMU]
IC50 [3]: 0.0019 mmol/dm3 | IC50 (Chlorella vulgaris): 0.0073 mmol/dm3

CC(=O)Nc1nc(NC(C)=O)nc(NC(C)=O)n1
GI50 (LoVo [5]): 3.5 mM | Activity (HL-60 [7]): 10.3% | Activity (HL-60 [8]): 12% | Activity (HL-60 [9]): 50.3% | Activity (HL-60 [10]): 45% | Activity (HL-60 [11]): 21% | Activity (HL-60 [12]): 11.1% | Activity (HL-60 [13]): 43.8% | Activity (HL-60 [14]): 27% | Activity (HL-60 [15]): 45.2% | Activity (HL-60 [16]): 26% | Activity (HL-60 [17]): 11.7% | GI50 (HL-60 [1]): 6.8 mM | Activity (HL-60 [18]): 46% | Activity (HL-60 [19]): 58.4% | MIC [2]: > 6.25 µg/mL | Activity (HL-60 [20]): 37.1% | Activity (HL-60 [21]): 10.8% | Activity (HL-60 [22]): 54.3% | Activity (HL-60 [23]): 57.3% | Activity (HL-60 [24]): 29.3% | IC50 [3]: 0.148 mmol/dm3 | Activity (HL-60 [25]): 34.2% | Activity (HL-60 [26]): 38.6% | Activity (HL-60 [27]): 44.5% | Activity (HL-60 [28]): 40.5% | GI50 (LoVo [6]): 1.89 mM | Activity (HL-60 [29]): 13.2% | IC50 (Chlorella vulgaris): 0.208 mmol/dm3 | Activity (HL-60 [30]): 6.9% | Inhibition [4]: 11%

CCN(CC)c1nc(N(CC)CC)nc(N(CC)CC)n1
GI50 (LoVo [5]): > 20 mM | GI50 (HL-60 [1]): > 10 mM | MIC [2]: > 6.25 µg/mL | IC50 [3]: 0.244 mmol/dm3 | GI50 (LoVo [6]): 12.5 mM | IC50 (Chlorella vulgaris): 0.067 mmol/dm3 | Inhibition [4]: 0%
